The values below come from patent publication US6440434B1, “Skin care composition” (Conopco, Inc., priority 1999, dated 2002).

Like-named read-outs stand apart in the source and are kept apart here.

Assay [1] concerns acyl CoA retinol transferase (ARAT). Description: in vitro Microsomal Assay of retinol esterification, ARAT catalyzed (retinyl palmitate). The conditions noted are these: solvent blank = 100% ester formation. In kind it is biochemical, bovine.
Procedure: (§1) A solution containing 0.1 M sodium phosphate pH 7 buffer, 5 mM dithiothreitol, 2 mg/ml bovine serum albumin, 40 micromolar palmitoyl CoA, 40 micromolar dilauroyl phosphatidyl choline, 10 micromolar retinol and a test compound or solvent blank, was incubated for 1 hour at 37° C. with a microsomal fraction isolated from bovine retinal pigment epithelial cells. After incubation, the reaction was quenched by addition of an equal volume of ethanol, and the retinyl esters formed (retinyl palmitate from the ARAT catalyzed reaction, and retinyl laurate from the LRAT catalyzed reaction) were extracted with hexane.
Assay [2] has as its target T1, lecithin retinol acyl transferase (LRAT) (Bos taurus, UniProt Q9BGL2).
T1 sequence (Q9BGL2 1-230): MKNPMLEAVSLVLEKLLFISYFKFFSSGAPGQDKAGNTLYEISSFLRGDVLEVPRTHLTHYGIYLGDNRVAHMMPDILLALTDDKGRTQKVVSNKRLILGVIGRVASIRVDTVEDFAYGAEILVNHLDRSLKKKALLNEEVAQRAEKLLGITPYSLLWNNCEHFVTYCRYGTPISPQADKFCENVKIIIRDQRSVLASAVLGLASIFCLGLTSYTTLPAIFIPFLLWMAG
Nature of the assay: in vitro Microsomal Assay of retinol esterification, LRAT catalyzed (retinyl laurate). As to conditions: solvent blank = 100% ester formation. Format: biochemical, bovine.
Procedure: as §1

For assay [3], the system named is LRAT and ARAT catalyzed retinol esterification. Nature of the assay: in vitro Microsomal Assay, retinol esterification overall (statements in words). In kind it is biochemical, bovine.
Procedure: as §1
The subject of assay [4] is procollagen-I synthesis in human dermal fibroblasts. Nature of the assay: Dot blot assay for procollagen-I in dermal fibroblast conditioned medium. Format: cell-based. As to conditions: 0.01 μM of each active; for Procollagen 1: Table 7, PA/Retinol set, control = 100%.
Procedure: (§2) Primary human foreskin fibroblasts at passage 2 (P2) were seeded into 12-well plates at 10000 cells/cm^2 and maintained for 24 hours in an atmosphere of 5% carbon dioxide and 4% oxygen in Dulbeccos Modified Eagles Medium (DMEM) supplemented with 10% foetal calf serum. After this time the cells were washed with serum free DMEM and then incubated in fresh serum free DMEM for a further 60 hours. The fibroblast monolayers were then washed again with serum free DMEM. Test reagents and vehicle controls were added to the cells in triplicate in a final volume of 0.4 ml/well fresh serum free DMEM and incubated for a further 24 hours. This fibroblast conditioned medium was either analysed immediately or snap frozen in liquid nitrogen and stored at −70° C. for future analysis. The cells were then counted and data from the dot-blot analysis subsequently standardised to cell number.
(§3) Samples of conditioned medium from dermal fibroblasts treated with vehicle (as a control) or test reagents were supplemented with 20 mM dithiothreitol (1:10 dilution of 200 mM stock solution) and 0.1% sodium dodecylsulphate (1:100 dilution of 10% stock solution), mixed well and then incubated at 75° C. for 2 minutes. A standard for the assay was generated by serial dilution of neat fibroblast conditioned medium from fibroblasts seeded at 10000 cells/cm^2 in a 175 cm^2 flask and maintained in serum free DMEM as described above.
Assay samples were subsequently applied in triplicate to a prewetted sheet of Immobilon-P transfer membrane using the 96-well Bio-Dot Apparatus from Bio-Rad as described in the manufacturers guidelines. […]
Following this the Immobilon strips were again washed with TBS/Tween 20 (3×5 minutes) before being allowed to dry in air at room temperature. […] Dot intensity was assessed by computer-assisted image analysis using the quantification tools in ImageQuant™, standardised to cell number and the effects of various test reagents on decorin and procollagen-I synthesis were determined relative to a vehicle treated control value of 100 arbitrary units.
For assay [5], the system named is decorin synthesis in human dermal fibroblasts. Description: Dot blot assay for decorin in dermal fibroblast conditioned medium. In kind it is cell-based.
Procedure: as §2, §3
Assay samples were subsequently applied in triplicate to a prewetted sheet of Immobilon-P transfer membrane using the 96-well Bio-Dot Apparatus from Bio-Rad as described in the manufacturers guidelines. Approximately 200 μl of medium was applied per well. The medium was allowed to filter through the membrane under gravity (30 minutes) after which the membrane was washed twice with PBS (200 μl). These PBS washes were allowed to filter through the membrane under gravity (2×15 minutes). The Bio-Dot apparatus was then attached to a vacuum manifold and a third and final PBS wash carried out under suction. The apparatus was disassembled, the membrane removed and quickly cut as required before being placed in blocking buffer overnight at 4° C. Membranes prepared for decorin analysis were blocked with 3% (w/v) BSA/0.1% (v/v) Tween 20 in PBS, whilst those for procollagen-I analysis were blocked with 5% (w/v) non fat dried milk powder/0.05% Tween 20 in PBS.
Following this the Immobilon strips were again washed with TBS/Tween 20 (3×5 minutes) before being allowed to dry in air at room temperature. The dried membranes were wrapped in cellophane and exposed to a Molecular Dynamics storage phosphor screen for 16-18 hours. At the end of this time the exposed screen was scanned by a phosphorimager (Molecular Dynamics Phosphorimager SF) using ImageQuant™ software. Dot intensity was assessed by computer-assisted image analysis using the quantification tools in ImageQuant™, standardised to cell number and the effects of various test reagents on decorin and procollagen-I synthesis were determined relative to a vehicle treated control value of 100 arbitrary units.
Setting [6] is: Table 7, PA/trans Retinoic acid set, 0.01 μM of each active, control = 100%.

`CC(=O)c1cc2c(cc1C)C(C)(C)C(C)CC2(C)C` (stereo not shown) [Tonalid]: the “% INHIBITION, ARAT” value in assay [1] (100 μM test compound) is recorded as 50%.

With `CCCCCCCCCCCCC/C=C/[C@@H](O)[C@H](CO)NC(C)=O` [Acetyl Sphingosine], the “% INHIBITION, LRAT” value in assay [2] (10 μM test compound) is given as 10%; in assay [2] (100 μM test compound), 50%. Further, the “% INHIBITION, ARAT” value in assay [1] (10 μM test compound) amounted to 19%; in assay [1] (100 μM test compound) it was 62%. Further, the “retinol esterification inhibition (in words)” value in assay [3] was “potent retinol esterification inhibitors”.

For the compound `CC1=CCC(CCC(C)CO)C1(C)C` (stereo not shown) [Brahmanol], the “% INHIBITION, LRAT” value in assay [2] (100 μM test compound) was 75%. Also, the “% INHIBITION, ARAT” value in assay [1] (100 μM test compound) is recorded as 70%.

Regarding `C/C=C/C(=O)C1=C(C)CCCC1(C)C` [Beta damascone], the “% INHIBITION, LRAT” value in assay [2] (10 μM test compound) was 52%; in assay [2] (100 μM test compound), 92%.

Consider Sandanol, for which the “% INHIBITION, LRAT” value in assay [2] (100 μM test compound) is recorded as 43%. Further, the “% INHIBITION, ARAT” value in assay [1] (100 μM test compound) is on record as 15%.

Consider `CCOC(=O)C1=C(C)C=CCC1(C)C` [Ethyl saffranate], for which the “% INHIBITION, LRAT” value in assay [2] (100 μM test compound) is listed as 49%.

Turning to `O=C(NCO)N(CO)C1(CO)C(=O)NC(=O)N1CO` (stereo not shown) [diazolidinyl urea, reference compound], the “% INHIBITION, ARAT” value in assay [1] (100 μM test compound) was 0%.

Regarding `CC12CCC(C1)C(C)(C)C2O` (stereo not shown) [fenchyl alcohol, reference compound], in assay [1] (100 μM test compound), the “% INHIBITION, ARAT” value is listed as 12%.

Compound `CCCCCCCCCCC/C=C\CCCCC(=O)O` [PA, Petroselinic acid] registered a Procollagen-I in assay [4] (Table 6, 24 hours, vehicle control = 100) of 85.1%. In addition, in assay [4], the “Procollagen 1” value was determined as 86.0%. In addition, the Decorin in assay [5] (Table 6, 0.01 μM, 24 hours, vehicle control = 100) was determined as 101.8%; in assay [5] (Table 7, PA/Retinyl Linoleate set, 0.01 μM, control = 100%), 107.5%; in assay [5] (setting [6]) it was 100.5%.

As for `CC(C)(O)CCCC1=CCC(C=O)CC1` (stereo not shown) [Lyral], the “% INHIBITION, ARAT” value in assay [1] (100 μM test compound) was determined as 76%.

For the compound `CC(C)=CCC/C(C)=C/CC/C(C)=C/CC/C(C)=C/CO` [Geranyl Geraniol], the “% INHIBITION, ARAT” value in assay [1] (10 μM test compound) turned out to be 38%; in assay [1] (100 μM test compound), 81%. Moreover, the “retinol esterification inhibition (in words)” value in assay [3] (listed as Geranyl geraniol) is listed as “substantially more potent esterification inhibitor, than farnesol”; in assay [3] (listed as geranyl geraniol) it was “inhibit retinol esterification”.

As for `C/C=C/C(=O)C1=C(C)C=CCC1(C)C` [Damascenone], the “% INHIBITION, LRAT” value is reported as 29% in assay [2] (10 μM test compound) and 79% in assay [2] (100 μM test compound).

Sandalone: in assay [2] (100 μM test compound), the “% INHIBITION, LRAT” value was determined as 12%. The “% INHIBITION, ARAT” value in assay [1] (100 μM test compound) is recorded as 23%.

Consider `CCCC(O)CCC1C(C)CCCC1(C)C` (stereo not shown) [Timberol], for which, in assay [2] (100 μM test compound), the “% INHIBITION, LRAT” value stood at 33%.

On to Isobutyl ionone, for which the “% INHIBITION, LRAT” value in assay [2] (100 μM test compound) was 45%. For the same compound, in assay [1] (100 μM test compound), the “% INHIBITION, ARAT” value was determined as 8%.

For the compound `C/C=C/C(=O)C1C(C)C=CCC1(C)C` (stereo not shown) [Delta damascone], the “% INHIBITION, LRAT” value in assay [2] (10 μM test compound) was 64%; in assay [2] (100 μM test compound), 95%.

On to `CC1=C(/C=C/C(C)=C/C=C/C(C)=C/CO)C(C)(C)CCC1` [Retinol, reference compound], for which the “Procollagen 1” value in assay [4] is reported as 95.0%.

In the case of `CCCCC/C=C\C/C=C\CCCCCCCC(=O)N(CCO)CCO` [Linoleamide-DEA (LODEA), Linoleamide-DEA], the “% INHIBITION, LRAT” value in assay [2] (10 μM test compound) came out at 11%; in assay [2] (100 μM test compound), 51%. Further, the “retinol esterification inhibition (in words)” value in assay [3] is listed as “potent retinol esterification inhibitors”.

As to `N[C@@H](Cc1c[nH]c2ccccc12)C(=O)O` [tryptophan, reference compound], the “% INHIBITION, ARAT” value in assay [1] (100 μM test compound) is reported as 0%.

In the case of `COc1cc(C=O)ccc1O` [vanillin, reference compound], the “% INHIBITION, ARAT” value in assay [1] (100 μM test compound) stood at 0%.

As to `C=C(C)C1CC=C(C)C(=O)C1` (stereo not shown) [carvone, reference compound], the “% INHIBITION, ARAT” value in assay [1] (100 μM test compound) is 0%.

With `O=c1cc[nH]c(=O)[nH]1` [uracil, reference compound], the “% INHIBITION, ARAT” value in assay [1] (100 μM test compound) was determined as 0%.

Take `CC(=O)CCC1C(C)=CCCC1(C)C` (stereo not drawn) [dihydro alpha ionone, reference compound]: the “% INHIBITION, LRAT” value in assay [2] (100 μM test compound) worked out at 18%. The “% INHIBITION, ARAT” value in assay [1] (100 μM test compound) came out at 13%.

As to `CCCCC/C=C\C/C=C\CCCCCCCC(=O)NCCO` [Linoleamide-MEA (LOMEA), Linoleamide-MEA], the “retinol esterification inhibition (in words)” value in assay [3] was “potent retinol esterification inhibitors”. Further, the Decorin in assay [5] (Table 6, 0.1 μg/ml, 24 hours, vehicle control = 100) is 133.9%.

The compound `CCCCC/C=C\C/C=C\CCCCCCCC(=O)OC/C=C(C)/C=C/C=C(C)/C=C/C1=C(C)CCCC1(C)C` [Retinyl Linoleate] had a Decorin in assay [5] (Table 7, PA/Retinyl Linoleate set, 0.1 μM, control = 100%) of 109.1%.

Take `CC(C)=CCCC(C)=CCCC(C)=CCO` [Farnesol]: the “% INHIBITION, ARAT” value in assay [1] (10 μM test compound) is reported as 20%; in assay [1] (100 μM test compound) it was 43%. In addition, the “retinol esterification inhibition (in words)” value in assay [3] was “inhibit retinol esterification”.

Consider `CC12CCC(CC1=O)C2(C)C` (stereo not shown) [camphor, reference compound], for which the “% INHIBITION, ARAT” value in assay [1] (100 μM test compound) was 0%.

`O=CC=Cc1ccccc1` [cinnamaldehyde, reference compound]: in assay [1] (100 μM test compound), the “% INHIBITION, ARAT” value was 0%.

As to `Cc1ncc(C[n+]2csc(CCO)c2C)c(N)n1` [thiamine, reference compound], the “% INHIBITION, ARAT” value in assay [1] (100 μM test compound) is 0%.

As for `CCC(=O)/C=C/C1C(C)=CCCC1(C)C` (stereo not drawn) [Alpha methyl ionone], in assay [2] (100 μM test compound), the “% INHIBITION, LRAT” value was 77%. For the same compound, the “% INHIBITION, ARAT” value in assay [1] (100 μM test compound) is 67%.

`CC1=C(/C=C/C(C)=C/C=C/C(C)=C/C(=O)O)C(C)(C)CCC1` [trans Retinoic acid, reference compound] returned a Decorin in assay [5] (setting [6]) of 102.8%.

Consider `CC12CCC(CC1)C(C)(C)O2` [eucalyptol, reference compound], for which, in assay [1] (100 μM test compound), the “% INHIBITION, ARAT” value is on record as 0%.

For the compound `CC(=O)/C(C)=C/C1C(C)=CCCC1(C)C` (stereo not shown) [Gamma methyl ionone], the “% INHIBITION, LRAT” value in assay [2] (100 μM test compound) turned out to be 38%.

Regarding `CC=CC(=O)C1CCC(C)(C)C=C1C` (stereo not shown) [Isodamascone], in assay [2] (100 μM test compound), the “% INHIBITION, LRAT” value amounted to 92%. In assay [1] (100 μM test compound), the “% INHIBITION, ARAT” value was determined as 80%.

As to `Cc1ccc(C(C)C)c(O)c1` [thymol, reference compound], in assay [1] (100 μM test compound), the “% INHIBITION, ARAT” value was determined as 0%.

Take `CC1=CC(C)C(CO)C(C)C1` (stereo not shown) [isocyclogeraniol, reference compound]: the “% INHIBITION, LRAT” value in assay [2] (100 μM test compound) was determined as 16%. The “% INHIBITION, ARAT” value in assay [1] (100 μM test compound) is 18%.

Take `Nc1ncnc2nc[nH]c12` [adenine, reference compound]: the “% INHIBITION, ARAT” value in assay [1] (100 μM test compound) is recorded as 0%.
